# What was measured:
# [1] = in vivo; cited from earlier work
# KMRC-3 cells = test: SPECT/CT imaging of mice with orthotopically injected KMRC-3 ccRCC cells; format: in vivo; details: 5.36 MBq injected 13 weeks after cell injection, imaged after 1 h and 35 min, FIG. 4
# Protocol: FIG. 4: SPECT/CT images of a mouse injected with 5.36 MBq (^123I-Ioflupan).
# ccRCC cell line KMRC-3 cells were injected orthotopically in mice, 2*10^6 cells in 40 ul PBS. After 13 weeks the mice were injected with 5.36 MBq ^123I-Ioflupan and analysed by SPECT/CT imaging after 1 h and 35 min.
# ccRCC cell lines = details: 7 nM [3H]dopamine; uptake correlates with SLC6A3 expression level
# Protocol: (§1) Uptake experiments were performed in cells cultivated in 12-well plates at 37° C. The cells of interest were seeded at 80.000 cells/well 48 h before the uptake experiment was performed. The wells were washed in 1×PBS, followed by a wash in 1 ml of assay buffer (Hanks Balanced Salt Solution (HBSS) with CaCl2 and MgCl2, without phenol red supplemented with 10 mM HEPES, pH 7.4) at 37° C. and then incubated with 0.5 ml of buffer for 5 min. […] All uptake experiments were stopped by removing the uptake buffer and adding 1 ml of ice-cold assay buffer to each well and immediately aspirating the buffer and washing three additional times with 1 ml of ice-cold buffer. The incorporated radioactivity was extracted by solubilising the cells with 1% Triton-X for 1 h at R.T, 6 ml of scintillation fluid was thereafter added. The amount of radioactivity was measured with a Tri-carb 2810TR liquid scintillation analyzer (Perkin Elmer).
# SLC6A3 = SLC6A3 (Homo sapiens, UniProt Q01959); test: [3H]dopamine uptake in ccRCC cell lines in the presence of specific SLC6A3 inhibitors; details: GBR12935 30 nM (SKRC10); GBR12909 10-90 nM (KMRC3, SNU-349); 1 h pre-incubation, 5 min uptake; FIG. 8 A-C
# Sequence of SLC6A3 (Q01959 whole entry): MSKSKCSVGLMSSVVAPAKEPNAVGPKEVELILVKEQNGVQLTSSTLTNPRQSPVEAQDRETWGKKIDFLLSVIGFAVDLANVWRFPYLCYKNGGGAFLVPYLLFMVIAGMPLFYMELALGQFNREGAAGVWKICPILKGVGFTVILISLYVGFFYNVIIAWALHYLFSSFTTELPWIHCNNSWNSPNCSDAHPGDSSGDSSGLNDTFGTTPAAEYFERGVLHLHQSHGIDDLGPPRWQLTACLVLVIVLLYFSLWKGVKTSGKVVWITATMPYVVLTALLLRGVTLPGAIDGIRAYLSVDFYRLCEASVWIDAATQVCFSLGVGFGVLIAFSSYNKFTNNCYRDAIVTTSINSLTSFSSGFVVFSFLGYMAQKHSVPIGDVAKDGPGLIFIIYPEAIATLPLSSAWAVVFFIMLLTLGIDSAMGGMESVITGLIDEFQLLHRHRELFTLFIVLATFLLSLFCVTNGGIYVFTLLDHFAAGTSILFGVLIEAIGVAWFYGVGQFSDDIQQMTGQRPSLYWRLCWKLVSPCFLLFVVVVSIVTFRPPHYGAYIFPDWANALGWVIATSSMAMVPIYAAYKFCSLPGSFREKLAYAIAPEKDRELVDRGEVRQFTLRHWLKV
# Protocol: Data presented as mean±SEM.
# as §1
# Protocol for primary ccRCC cells: as §1
compound,measurement,setting,value
"Fc1ccc(C(OCCC2CCN(Cc3ccc(I)cc3)CC2)c2ccc(F)cc2)cc1 [FMIP, 4-(2-(bis(4-fluorophenyl)methoxy)ethyl)-1-(4-iodobenzyl)piperidine]",passage of the blood-brain barrier,[1],does not pass the blood-brain barrier
"COC(=O)[C@@H]1C2CCC(C[C@@H]1c1ccc(I)cc1)N2CCCF (stereo partly drawn) [Ioflupane (^123I), [^123I] N-ω-fluoropropyl-2β-carbomethoxy-3β-(4-iodophenyl)nortropane]",uptake in contralateral kidney lacking injected tumor cells (SPECT/CT),KMRC-3 cells,no enhanced uptake
same,uptake in kidney orthotopically injected with KMRC-3 cells (SPECT/CT),KMRC-3 cells,clearly display enhanced uptake
same,uptake in contralateral kidney lacking injected tumor cells (SPECT/CT),KMRC-3 cells; listed as 123I-Ioflupan,no signal could be detected
same,uptake in kidney orthotopically injected with KMRC-3 cells (SPECT/CT),KMRC-3 cells; listed as 123I-Ioflupan,uptake
"NCCc1ccc(O)c(O)c1 [unlabelled dopamine, dopamine]",[3H]dopamine uptake of primary ccRCC tumor cells in response to competitive unlabelled dopamine,"primary ccRCC cells; 7 nM [3H]dopamine with 2 uM or 20 uM unlabelled dopamine for 5 min, FIG. 7A-B",decreased uptake
NCCc1ccc(O)c(O)c1 [[H^3]dopamine],uptake of [3H]dopamine by primary ccRCC cells compared to primary normal cortex cell,"primary ccRCC cells; 7 nM [3H]dopamine, 1-20 min, 37° C., FIG. 3 and FIG. 7A",enhanced uptake
same,uptake of [3H]dopamine by ccRCC cell lines,ccRCC cell lines,take up
c1ccc(CCCN2CCN(CCOC(c3ccccc3)c3ccccc3)CC2)cc1 [GBR12935],amount of [3H]-dopamine taken up by ccRCC cells in presence of inhibitor,SLC6A3,clearly diminish
